These results are taken from ChEMBL document CHEMBL1806355, “Synthesis and evaluation of 1-cyclopropyl-2-thioalkyl-8-methoxy fluoroquinolones” (2011).

The test system of test [1] is Mycolicibacterium smegmatis. Kind of test: Antibacterial activity against Mycobacterium smegmatis KD1163. The test is classed as functional.
The test system of test [2] is Escherichia coli. Kind of test: Antibacterial activity against Escherichia coli KD65. It counts as functional.
Test [3] is described as follows: Inhibition of DNA gyrase.
The subject of test [4] is Escherichia coli. The test can be described thus: Antibacterial activity against tolC knockout Escherichia coli KD1397. It counts as functional.

The term MIC denotes the lowest concentration that inhibits growth of the organism.

Each structure is given as a SMILES string. Converted amounts (≈) assume the structure as drawn. The source made the active and inactive calls. No cut-off for these calls is given here.

Regarding `O=C(O)c1cn(C2CC2)c2cc(N3CCNCC3)c(F)cc2c1=O` [CIPROFLOXACIN], the MIC amounted to 0.156 µg/mL (≈ 0.471 µM) in test [1] and 0.04 µg/mL (≈ 0.121 µM) with Escherichia coli [2].
For the molecule `COc1c(N2C[C@@H]3CCCN[C@@H]3C2)c(F)cc2c(=O)cc(SC(C)C)n(C3CC3)c12`, the MIC in test [1] is 50 µg/mL (≈ 116 µM); in the test on Escherichia coli [4], 50 µg/mL (≈ 116 µM); against Escherichia coli [2] it was > 50 µg/mL. For the same molecule, in test [3], the inhibition entry is “Active”.
For `CC1Sc2c(C(=O)O)c(=O)c3cc(F)c(N4CCNCC4)cc3n21` (stereo unspecified) [ULIFLOXACIN], the MIC in test [1] was 3.13 µg/mL (≈ 8.96 µM); against Escherichia coli [4], 0.016 µg/mL (≈ 0.0458 µM); with Escherichia coli [2] it was 0.062 µg/mL (≈ 0.177 µM).
Regarding `CCSc1c(C(=O)O)c(=O)c2cc(F)c(N3CCNCC3)c(OC)c2n1C1CC1`, the figures for the minimal inhibitory concentration (MIC) (in test [1]; against Escherichia coli [4]; in the test with Escherichia coli [2]) were > 200 µg/mL, 12.5 µg/mL (≈ 29.7 µM) and 200 µg/mL (≈ 475 µM), respectively. Moreover, the inhibition result in test [3] is “Active”.
Regarding `COc1c(N2C[C@@H]3CCCN[C@@H]3C2)c(F)cc2c(=O)ccn(C3CC3)c12`, the results for the MIC (in test [1]; against Escherichia coli [4]; against Escherichia coli [2]) were > 200 µg/mL, 100 µg/mL (≈ 280 µM) and > 200 µg/mL, respectively.
Regarding `CCSc1cc(=O)c2cc(F)c(N3C[C@@H]4CCCN[C@@H]4C3)c(OC)c2n1C1CC1`, the MIC in test [1] was > 200 µg/mL; in the test on Escherichia coli [4], 100 µg/mL (≈ 239 µM); in the test on Escherichia coli [2], > 200 µg/mL. The inhibition entry in test [3] was “Active”.
Regarding `CC1Sc2cc(=O)c3cc(F)c(N4CCNCC4)cc3n21` (stereo unspecified) [DESCARBOXYULIFLOXACIN], the values for the MIC (in test [1]; in the test on Escherichia coli [4]; with Escherichia coli [2]) were 200 µg/mL (≈ 655 µM), 200 µg/mL (≈ 655 µM) and > 200 µg/mL, respectively.
Regarding `CCSc1cc(=O)c2cc(F)c(N3CCNCC3)c(OC)c2n1C1CC1`, the MIC in test [1] was > 50 µg/mL; with Escherichia coli [4], 25 µg/mL (≈ 66.2 µM); in the test with Escherichia coli [2], > 50 µg/mL. In addition, the inhibition result in test [3] is “Active”.
Turning to `COc1c(N2CCNCC2)c(F)cc2c(=O)cc(SC(C)C)n(C3CC3)c12`, the MIC (in test [1]; with Escherichia coli [4]; in the test on Escherichia coli [2]) was > 50 µg/mL in each case. For the same molecule, the inhibition entry in test [3] was “Active”.
`CCSc1c(C(=O)O)c(=O)c2cc(F)c(N3C[C@@H]4CCCN[C@@H]4C3)c(OC)c2n1C1CC1`: the MIC is 50 µg/mL (≈ 108 µM) in test [1], > 50 µg/mL in the test with Escherichia coli [4] and > 50 µg/mL in the test on Escherichia coli [2]. In addition, the inhibition entry in test [3] is “Active”.
As to `COc1c(N2C[C@@H]3CCCN[C@@H]3C2)c(F)cc2c(=O)c(C(=O)O)cn(C3CC3)c12` [MOXIFLOXACIN], the MIC in test [1] came out at 0.08 µg/mL (≈ 0.199 µM); against Escherichia coli [4], 0.004 µg/mL (≈ 0.00996 µM); in the test with Escherichia coli [2], 0.156 µg/mL (≈ 0.389 µM).
For `O=c1ccn(C2CC2)c2cc(N3CCNCC3)c(F)cc12`, the MIC in test [1] worked out at 6.25 µg/mL (≈ 21.8 µM); in the test on Escherichia coli [4], 1.56 µg/mL (≈ 5.43 µM); with Escherichia coli [2], 50 µg/mL (≈ 174 µM).
